Test results: US8592421B2, “Cyclic bioisosters of purine system derivatives and a pharmaceutical composition based thereon” (priority 2003, dated 2013)

What was measured:
thrombocytes [1] = experiment: ADP-induced aggregation of thrombocytes in vitro (Born method, plasma enriched with thrombocytes); assay type: cell-based, rabbit; settings: 3-minute incubation, ADP 10^−5 M
thrombocytes [2] = experiment: ADP-induced aggregation of thrombocytes after intravenous administration (in vivo); set-up: species or system rabbit
Experimental: The experiments were carried out on male rabbits of the “Chinchilla” breed having a mass of 2.7±0.3 kg. 18-24 hours prior to the experiment they were deprived of feed while preserving free access to water.
To obtain plasma enriched with thrombocytes, blood was taken from a cut of a marginal vein of the rabbit ear, the sample was stabilized with 3.8% of sodium citrate solution in a ratio of 9:1 and centrifuged at 200 g (1000 rev/min) for 10 minutes. The top supernatant layer enriched with thrombocytes was transferred by an automatic dropper into a silicone test tube and kept at 37° C. The plasma enriched with thrombocytes contained, on the average, […]. If this content exceeded the specified 3×10^8 blood platelets in 1 liter, this sample was diluted to the necessary concentration with plasma deprived of thrombocytes, which was obtained by centrifuging blood at 650 g during 10 minutes.
The measurements of the optical density of the samples were made on two-channel aggregometer of the “Chronolog” Company (USA). A flask containing 490 mkl of plasma rich with thrombocytes was placed in a device, into which a magnetic agitator covered with Teflon was lowered. The index of maximum amplitude of aggregation (MA) in percent of a fall of the plasma optical density under effect of the aggregation inductor was recorded. The control index MA of plasma was compared with the MA of plasma incubated for 3 minutes with different concentrations of the compounds: from 10^−3 to 10^−7 in vitro experiments or with plasma obtained 15, 30, 60 and 120 minutes after intravenous administration of different doses of the compounds in vivo experiments.
The process of aggregation of thrombocytes was recorded with the help of a computer; on the monitor screen the there were depicted curves reflecting changes of the optical density of the plasma enriched which was taken as a standard 100% compared to the optical density of the non-thrombocyte plasma taken for 0% content of thrombocytes.
The antiaggregative capability of compounds 2, 15, 21, 37, according to the invention was tested in experiments in vivo. Introduced to the test animals intravenously were an aggregation inductor ADP at a concentration of 10^−5 M was and then the compounds according to the invention. The doses of the compounds were in a range from 15 to 60 mg/kg.
For leveling the different effects of the compounds in different days due the ambient temperature, humidity and other parameters, 2 animals of each series were taken for experiments every day. Under “series” there is understood a group of 6 animals used for studying one of the doses of the compounds.
The blood for obtaining plasma enriched with thrombocytes was taken from marginal vein of the rabbit ear: in the control group—directly before introducing the tested compounds; in investigated groups—15 minutes after introducing these compounds and then after 30, 60, 120 minutes and so on up to the moment when the effect of suppression of aggregation disappeared.
The quantity of thrombocytes was counted before the experiment and at the end thereof in each plasma sample.

plasma hemostasis = experiment: Partial activated thromboplastin time (PATT) after intravenous administration; assay type: in vivo, rabbit; settings: for effect on the PATT: doses 15.0, 30.0, 60.0 mg/kg
Experimental: The static parameters of the blood and plasma coagulation (partial activated thromboplastin time, thrombin time, maximum coagulation activity (test for auto coagulation) were determined using the Behnk Electronic coagulometer (Germany). The operating principle of this instrument is based on the fact that the formed blood clot breaks the contacts of the pulse counter in the flask-pin circuit, said pin permanently oscillating in a vertical plane. The moment of formation of the clot is registered by stopping the stop watch hand.
The measurements were effected at a constant temperature of 37° C. maintained by a temperature control unit.

[3] = Chronic toxicity of suppositories: biochemical indexes of blood serum; assay type: in vivo, rats; settings: male rats, suppositories, 1 month; for Cholesterol in blood serum: control 3.02 ± 0.08; for Urea in blood serum: control 8.44 ± 0.60; for Glucose in blood serum: control 9.76 ± 0.15; for ALT in blood serum: control 11.33 ± 1.96; for AST in blood serum: control 19.13 ± 1.02; for Bilirubin in blood serum: control 35.93 ± 2.19; for Creatinine in blood serum: control 40.23 ± 2.84; for Alkalinous phosphatase in blood serum: control 40.74 ± 1.57; for Total protein in blood serum: control 94.89 ± 6.67;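 as to all read-outs here: inbred rats dosed rectally with softened suppositories, controls given matching volumes of sterile medical liquid paraffin, serum sampled one month into a two-month dosing course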
Experimental: The experiments were conducted on inbred rats.
Two doses of preparations used in the experiments: 50 mg/kg and 500 mg/kg. Before the administration, the suppositories were softened by heating in a glass water bath at a temperature of 38-39° C., the soft mass was collected in tuberculin syringe in a volume of 1 ml, a needle with oliva was attached to the syringe, and the preparatory mass was introduced into the rectum of the animal for a depth of 1.5-2.0 cm. The animals of the control group were administered with sterile medical liquid paraffin in a volume corresponding to the volume of the investigated suppository. A complete course of administration of drugs to the animals was two months. A complex of laboratory diagnostic investigations was carried out one month after the beginning of the administration of the preparation to the animal—in a middle of the course (8 animals), two months after ending the course (8 animals) and three months after ending the recovery period of one month (8 animals). The mass of the body of the rats in the first month of administration of the preparation was determined weekly, and then once in two weeks. On the basis of the dynamics of an index of the mass of the animal body, the volume of preparation being administered was corrected taking into account the test dose.

[4] = 15.0 mg/kg intravenously, after 15 minutes, control 50.1 ± 1.7
[5] = 15.0 mg/kg intravenously, after 30 minutes, control 50.1 ± 1.7
[6] = 15.0 mg/kg intravenously, after 60 minutes, control 50.1 ± 1.7
[7] = 15.0 mg/kg intravenously, after 120 minutes, control 50.1 ± 1.7
[8] = 30.0 mg/kg intravenously, after 15 minutes, control 61.0 ± 1.3
[9] = 30.0 mg/kg intravenously, after 30 minutes, control 61.0 ± 1.3
[10] = 30.0 mg/kg intravenously, after 60 minutes, control 61.0 ± 1.3
[11] = 30.0 mg/kg intravenously, after 120 minutes, control 61.0 ± 1.3
[12] = 60.0 mg/kg intravenously, after 15 minutes, control 48.6 ± 1.3
[13] = 60.0 mg/kg intravenously, after 30 minutes, control 48.6 ± 1.3
[14] = 60.0 mg/kg intravenously, after 60 minutes, control 48.6 ± 1.3
[15] = 60.0 mg/kg intravenously, after 120 minutes, control 48.6 ± 1.3
[16] = 15.0 mg/kg intravenously, after 15 minutes, control 37.0 ± 0.2
[17] = 15.0 mg/kg intravenously, after 30 minutes, control 37.0 ± 0.2
[18] = 15.0 mg/kg intravenously, after 60 minutes, control 37.0 ± 0.2
[19] = 15.0 mg/kg intravenously, after 120 minutes, control 37.0 ± 0.2
[20] = 30.0 mg/kg intravenously, after 15 minutes, control 33.3 ± 0.8
[21] = 30.0 mg/kg intravenously, after 30 minutes, control 33.3 ± 0.8
[22] = 30.0 mg/kg intravenously, after 60 minutes, control 33.3 ± 0.8
[23] = 30.0 mg/kg intravenously, after 120 minutes, control 33.3 ± 0.8
[24] = 60.0 mg/kg intravenously, after 15 minutes, control 32.5 ± 0.3
[25] = 60.0 mg/kg intravenously, after 30 minutes, control 32.5 ± 0.3
[26] = 60.0 mg/kg intravenously, after 60 minutes, control 32.5 ± 0.3
[27] = 60.0 mg/kg intravenously, after 120 minutes, control 32.5 ± 0.3

## Nc1cccc2c(=O)[nH][nH]c(=O)c12.[Na] [Compound 15, sodium salt of 5-amino-benzo[d]-3H-pyridazine-1,4-dione]
Thrombocytes [1]; 10^−3 M, control 60.8 ± 3.4
  MA - fall of optical density of plasma, % to the standard: 44.8 ± 2.8 %
Thrombocytes [1]; 10^−4 M, control 60.0 ± 2.1
  MA - fall of optical density of plasma, % to the standard: 46.3 ± 1.7 %
Thrombocytes [1]; 10^−5 M, control 52.5 ± 2.1
  MA - fall of optical density of plasma, % to the standard: 39.8 ± 3.1 %
Thrombocytes [1]; 10^−6 M, control 52.8 ± 1.8
  MA - drop of optical density, %: 47.3 ± 1.8 %
Thrombocytes [1]; 10^−7 M, control 51.5 ± 2.1
  MA - drop of optical density, %: 49.3 ± 1.4%
Thrombocytes [2]; [4]
  MA - drop of optical density: 42.8 ± 1.8 %
Thrombocytes [2]; [5]
  MA - drop of optical density: 41.8 ± 1.5 %
Thrombocytes [2]; [6]
  MA - drop of optical density: 45.6 ± 1.5 %
Thrombocytes [2]; [7]
  MA - drop of optical density: 48.3 ± 2.3 %
Thrombocytes [2]; [8]
  MA - drop of optical density: 43.2 ± 2.2 %
Thrombocytes [2]; [9]
  MA - drop of optical density: 41.8 ± 1.9 %
Thrombocytes [2]; [10]
  MA - drop of optical density: 37.8 ± 1.8 %
Thrombocytes [2]; [11]
  MA - drop of optical density: 58.1 ± 1.7%
Thrombocytes [2]; [12]
  MA - drop of optical density: 43.1 ± 1.5 %
Thrombocytes [2]; [13]
  MA - drop of optical density: 41.3 ± 1.5 %
Thrombocytes [2]; [14]
  MA - drop of optical density: 44.7 ± 0.8%
Thrombocytes [2]; [15]
  MA - drop of optical density: 47.2 ± 1.6%
Plasma hemostasis; [16]
  PATT, T: 37.0 ± 0.1 s
Plasma hemostasis; [17]
  PATT, T: 37.0 ± 0.2 s
Plasma hemostasis; [18]
  PATT, T: 36.9 ± 0.1 s
Plasma hemostasis; [19]
  PATT, T: 37.0 ± 0.3 s
Plasma hemostasis; [20]
  PATT, T: 32.9 ± 0.8 s
Plasma hemostasis; [21]
  PATT, T: 32.1 ± 0.1 s
Plasma hemostasis; [22]
  PATT, T: 32.0 ± 0.2 s
Plasma hemostasis; [23]
  PATT, T: 32.0 ± 0.1 s
Plasma hemostasis; [24]
  PATT, T: 32.2 ± 0.1 s
Plasma hemostasis; [25]
  PATT, T: 32.2 ± 0.1 s
Plasma hemostasis; [26]
  PATT, T: 32.1 ± 0.2 s
Plasma hemostasis; [27]
  PATT, T: 32.2 ± 0.1 s
Plasma hemostasis
  effect on the PATT: do not affect the PATT
[3]; 50 mg/kg
  Cholesterol in blood serum: 2.01 ± 0.50 mmol/L
  Urea in blood serum: 10.33 ± 0.51 Mkmol/l
  Glucose in blood serum: 10 ± 0.41 mM
  ALT in blood serum: 7.63 ± 1.95 unit/l
  AST in blood serum: 19.49 ± 2.90 unit/1
  Bilirubin in blood serum: 43.07 ± 3.57 mmol/L
  Creatinine in blood serum: 45.59 ± 2.68 mkmol/l
  Alkalinous phosphatase in blood serum: 40.74 ± 6.78 unit/l
  Total protein in blood serum: 90.22 ± 6.78 g/L
[3]; 500 mg/kg
  Cholesterol in blood serum: 2.30 ± 0.57 mmol/L
  Urea in blood serum: 10.89 ± 0.73 Mkmol/l
  Glucose in blood serum: 10.7 ± 0.41 mM
  ALT in blood serum: 9.48 ± 1.85 unit/l
  AST in blood serum: 15.14 ± 1.58 unit/1
  Bilirubin in blood serum: 40.69 ± 15.75 mmol/L
  Creatinine in blood serum: 48.27 ± 12.29 mkmol/l
  Alkalinous phosphatase in blood serum: 41.60 ± 2.26 unit/l
  Total protein in blood serum: 71.56 ± 8.23 g/L

## Nc1cnc2c(=O)n([C@@H]3O[C@H](CO)[C@@H](O)[C@H]3O)[nH]c(=O)c2n1.[Na] [Compound 21, sodium salt of 3-amino-7-(β-D-ribofuranosile)pyrazine[2,3-d]-6H-pyridazine-5,8-dione]
Thrombocytes [1]; 10^−3 M, control 60.8 ± 3.4
  MA - fall of optical density of plasma, % to the standard: 47.1 ± 3.0 %
Thrombocytes [1]; 10^−4 M, control 60.0 ± 2.1
  MA - fall of optical density of plasma, % to the standard: 49.2 ± 2.1 %
Thrombocytes [1]; 10^−5 M, control 52.5 ± 2.1
  MA - fall of optical density of plasma, % to the standard: 41.8 ± 2.4 %
Thrombocytes [1]; 10^−6 M, control 52.8 ± 1.8
  MA - drop of optical density, %: 49.6 ± 1.7%
Thrombocytes [1]; 10^−7 M, control 51.5 ± 2.1
  MA - drop of optical density, %: 49.7 ± 2.1%
Thrombocytes [2]; [4]
  MA - drop of optical density: 43.5 ± 1.7 %
Thrombocytes [2]; [5]
  MA - drop of optical density: 43.3 ± 1.7 %
Thrombocytes [2]; [6]
  MA - drop of optical density: 46.7 ± 1.5 %
Thrombocytes [2]; [7]
  MA - drop of optical density: 49.1 ± 1.7%
Thrombocytes [2]; [8]
  MA - drop of optical density: 46.7 ± 1.9 %
Thrombocytes [2]; [9]
  MA - drop of optical density: 45.4 ± 1.8 %
Thrombocytes [2]; [10]
  MA - drop of optical density: 45.0 ± 1.9%
Thrombocytes [2]; [11]
  MA - drop of optical density: 60.3 ± 2.1%
Thrombocytes [2]; [12]
  MA - drop of optical density: 45.1 ± 0.9 %
Thrombocytes [2]; [13]
  MA - drop of optical density: 43.2 ± 2.0 %
Thrombocytes [2]; [14]
  MA - drop of optical density: 47.3 ± 1.6%
Thrombocytes [2]; [15]
  MA - drop of optical density: 48.3 ± 1.5%
Plasma hemostasis; [16]
  PATT, T: 37.1 ± 0.1 s
Plasma hemostasis; [17]
  PATT, T: 37.2 ± 0.1 s
Plasma hemostasis; [18]
  PATT, T: 36.9 ± 0.1 s
Plasma hemostasis; [19]
  PATT, T: 37.0 ± 0.2 s
Plasma hemostasis; [20]
  PATT, T: 32.8 ± 0.4 s
Plasma hemostasis; [21]
  PATT, T: 32.0 ± 0.1 s
Plasma hemostasis; [22]
  PATT, T: 32.2 ± 0.1 s
Plasma hemostasis; [23]
  PATT, T: 32.1 ± 0.1 s
Plasma hemostasis; [24]
  PATT, T: 32.0 ± 0.4 s
Plasma hemostasis; [25]
  PATT, T: 32.1 ± 0.2 s
Plasma hemostasis; [26]
  PATT, T: 32.0 ± 0.1 s
Plasma hemostasis; [27]
  PATT, T: 32.3 ± 0.2 s
Plasma hemostasis
  effect on the PATT: do not affect the PATT
